# Literature values as cited in patent publication US20110039930A1 (Emisphere Technologies, Inc., priority 2009, published 2011).
# Settings: bleeding, ulceration, perforation of the stomach or intestines
structure (smiles),measurement,value
"COc1ccc2cc(C(C)C(=O)O)ccc2c1 (stereo not shown) [Naproxen, 2-(6-methoxynaphthalen-2-yl)propanoic acid]",gastrointestinal adverse events,increased risk of serious gastrointestinal adverse events
